Measurements reported in ChEMBL document CHEMBL5230109, “Recent advances in epigenetic proteolysis targeting chimeras (Epi-PROTACs)” (Eur J Med Chem, 2020).
One block for each compound: values may come before it.

How the values were obtained:
[1] = target: T1, Protein cereblon/Protein deacetylase HDAC6 (Homo sapiens, UniProt Q96SW2+Q9UBN7); test: PROTAC activity at HDAC6/CRBN in human MM.1S cells; assay type: cell-based, MM1.S
MM1.S = test: Growth inhibition of human MM1.S cells; assay type: functional
[2] = target: T1, Protein cereblon/Protein deacetylase HDAC6; test: PROTAC activity at HDAC6/CRBN in human MM.1S cells measured after 24 hrs; assay type: cell-based, MM1.S
[3] = target: T2, Bromodomain-containing protein 2 (Homo sapiens, UniProt P25440); test: Binding affinity to BRD2 BD1 domain (unknown origin)
[4] = target: T2, Bromodomain-containing protein 2; test: Binding affinity to BRD2 BD2 domain (unknown origin)
[5] = target: T3, Bromodomain-containing protein 3 (Homo sapiens, UniProt Q15059); test: Binding affinity to BRD3 BD1 domain (unknown origin)
[6] = target: T3, Bromodomain-containing protein 3; test: Binding affinity to BRD3 BD2 domain (unknown origin)
[7] = target: T4, Bromodomain-containing protein 4 (Homo sapiens, UniProt O60885); test: Binding affinity to BRD4 BD1 domain (unknown origin)
[8] = target: T4, Bromodomain-containing protein 4; test: Binding affinity to BRD4 BD2 domain (unknown origin)
[9] = target: T5, von Hippel-Lindau disease tumor suppressor/Transcription intermediary factor 1-alpha (Homo sapiens, UniProt O15164+P40337); test: PROTAC activity at TRIM24/VHL in human HEK293FT cells assessed as degradation protein at 5 uM measured after 24 hrs; assay type: cell-based
Target sequence in this assay (O15164 whole entry, looked up): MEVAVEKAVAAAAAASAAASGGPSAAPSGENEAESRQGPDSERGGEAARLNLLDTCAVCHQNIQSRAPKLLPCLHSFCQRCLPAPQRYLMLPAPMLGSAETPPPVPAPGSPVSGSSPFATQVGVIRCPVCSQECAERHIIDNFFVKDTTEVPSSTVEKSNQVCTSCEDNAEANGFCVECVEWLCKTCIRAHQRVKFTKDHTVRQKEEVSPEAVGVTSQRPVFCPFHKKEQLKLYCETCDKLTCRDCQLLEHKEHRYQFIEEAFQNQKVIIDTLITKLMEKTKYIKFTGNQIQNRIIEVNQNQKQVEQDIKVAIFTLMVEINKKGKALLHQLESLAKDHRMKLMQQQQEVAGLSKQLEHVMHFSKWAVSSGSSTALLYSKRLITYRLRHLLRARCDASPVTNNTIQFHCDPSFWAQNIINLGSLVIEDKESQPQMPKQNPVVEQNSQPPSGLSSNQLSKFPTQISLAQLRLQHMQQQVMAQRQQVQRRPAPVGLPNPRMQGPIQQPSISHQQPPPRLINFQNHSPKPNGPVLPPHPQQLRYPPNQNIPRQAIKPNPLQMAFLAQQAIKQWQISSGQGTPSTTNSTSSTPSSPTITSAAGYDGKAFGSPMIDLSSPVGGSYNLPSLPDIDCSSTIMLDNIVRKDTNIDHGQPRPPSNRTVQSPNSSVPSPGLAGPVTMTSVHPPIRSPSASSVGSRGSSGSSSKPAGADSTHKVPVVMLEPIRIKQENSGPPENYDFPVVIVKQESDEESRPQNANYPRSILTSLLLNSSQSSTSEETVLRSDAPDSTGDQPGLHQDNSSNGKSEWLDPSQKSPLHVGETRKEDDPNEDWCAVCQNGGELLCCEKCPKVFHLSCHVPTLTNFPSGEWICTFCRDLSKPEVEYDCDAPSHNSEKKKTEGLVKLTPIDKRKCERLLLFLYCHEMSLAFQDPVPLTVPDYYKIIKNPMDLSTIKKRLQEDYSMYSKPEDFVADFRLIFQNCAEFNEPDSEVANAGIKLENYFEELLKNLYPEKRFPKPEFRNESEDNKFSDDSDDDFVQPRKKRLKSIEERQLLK
Target sequence in this assay (P40337 whole entry, looked up): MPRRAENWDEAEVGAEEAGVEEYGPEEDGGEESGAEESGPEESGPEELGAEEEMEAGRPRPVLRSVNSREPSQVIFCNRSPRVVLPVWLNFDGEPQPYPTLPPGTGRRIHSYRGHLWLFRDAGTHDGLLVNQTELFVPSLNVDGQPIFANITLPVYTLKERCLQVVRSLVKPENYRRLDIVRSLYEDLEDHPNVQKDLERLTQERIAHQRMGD

[10] = target: T5, von Hippel-Lindau disease tumor suppressor/Transcription intermediary factor 1-alpha; test: PROTAC activity at TRIM24/VHL in human MOLM-13 cells assessed as degradation protein at 5 uM measured after 24 hrs; assay type: cell-based
Target sequence in this assay (O15164 whole entry, looked up): as the sequence (O15164 whole entry, looked up) above
Target sequence in this assay (P40337 whole entry, looked up): as the sequence (P40337 whole entry, looked up) above

Polycomb protein EED [11] = target: T6, Polycomb protein EED (Homo sapiens, UniProt O75530); test: Binding affinity to PRC2 catalytic core EED (unknown origin) by surface plasmon resonance assay
[12] = Inhibition of PRC2 catalytic core MTase activity (unknown origin) by MTase Glo assay; design: species or system Homo sapiens
KARPAS-422 = test: Antiproliferative activity against human KARPAS-422 cells assessed as growth inhibition after 14 days by Cell Titer-Glo luminescent assay; assay type: functional; settings: KARPAS-422, 336 h, time 14 day
[13] = target: Histone-lysine N-methyltransferase EZH1 (Homo sapiens, UniProt Q92800); test: Inhibition of EZH1 methyltransferase activity (unknown origin) assessed `transfer of [3H]methyl group from SAM to substrate by biochemical assay
[14] = target: von Hippel-Lindau disease tumor suppressor/Polycomb protein EED (Homo sapiens, UniProt O75530+P40337); test: PROTAC activity at PRC2 catalytic core EED/VHL (unknown origin) measured after 24 hrs by Western blot analysis; assay type: protein assay
[15] = target: von Hippel-Lindau disease tumor suppressor/Histone-lysine N-methyltransferase EZH2 (Homo sapiens, UniProt P40337+Q15910, Y641N); test: PROTAC activity at PRC2 catalytic core EZH2/EZH2 Y641N mutant/VHL (unknown origin) measured after 24 hrs by Western blot analysis
[16] = target: von Hippel-Lindau disease tumor suppressor/Polycomb protein SUZ12 (Homo sapiens, UniProt P40337+Q15022); test: PROTAC activity at PRC2 catalytic core SUZ12/VHL in human DLBCL cells measured after 24 hrs by Western blot analysis; assay type: cell-based
Polycomb protein EED [17] = target: T6, Polycomb protein EED; test: Inhibition of PRC2 catalytic core EED (unknown origin)
[18] = target: Histone-lysine N-methyltransferase EZH2 (Homo sapiens, UniProt Q15910); test: Inhibition of EZH2 methyltransferase activity (unknown origin) assessed `transfer of [3H]methyl group from SAM to substrate by biochemical assay
Histone deacetylase 1 = Histone deacetylase 1 (Homo sapiens, UniProt Q13547); test: Inhibition of human recombinant GST-tagged HDAC1 incubated for 20 mins by HDAC Glo assay
Histone deacetylase 2 = Histone deacetylase 2 (Homo sapiens, UniProt Q92769); test: Inhibition of human recombinant GST-tagged HDAC2 incubated for 20 mins by HDAC Glo assay
Histone deacetylase 3 = Histone deacetylase 3 (Homo sapiens, UniProt O15379); test: Inhibition of human recombinant HDAC3 incubated for 20 mins by HDAC Glo assay
[19] = target: Protein deacetylase HDAC6 (Homo sapiens, UniProt Q9UBN7); test: Inhibition of human recombinant GST-tagged HDAC6 incubated for 20 mins by HDAC Glo assay
Histone deacetylase 8 = Histone deacetylase 8 (Homo sapiens, UniProt Q9BY41); test: Inhibition of human recombinant His-tagged HDAC8 incubated for 20 mins by HDAC Glo assay
[20] = target: Polyamine deacetylase HDAC10 (Homo sapiens, UniProt Q969S8); test: Inhibition of human recombinant His-tagged HDAC10 incubated for 20 mins by HDAC Glo assay
[21] = target: T5, von Hippel-Lindau disease tumor suppressor/Transcription intermediary factor 1-alpha; test: PROTAC activity at TRIM24/VHL (unknown origin) assessed as degradation protein; assay type: protein assay
[22] = target: T7, von Hippel-Lindau disease tumor suppressor/SWI/SNF-related matrix-associated actin-dependent regulator of chromatin subfamily A member 2 (Homo sapiens, UniProt P40337+P51531); test: PROTAC activity at SMARCA2/VHL in human MV4-11 cells assessed as degradation protein measured after 18 hrs; assay type: cell-based
[23] = target: von Hippel-Lindau disease tumor suppressor/SWI/SNF-related matrix-associated actin-dependent regulator of chromatin subfamily A member 4 (Homo sapiens, UniProt P40337+P51532); test: PROTAC activity at SMARCA4/VHL in human MV4-11 cells assessed as degradation protein measured after 18 hrs; assay type: cell-based
[24] = target: T8, Protein polybromo-1/von Hippel-Lindau disease tumor suppressor (Homo sapiens, UniProt P40337+Q86U86); test: PROTAC activity at PBRM1/VHL in human MV4-11 cells assessed as degradation protein measured after 18 hrs; assay type: cell-based
[25] = target: T7, von Hippel-Lindau disease tumor suppressor/SWI/SNF-related matrix-associated actin-dependent regulator of chromatin subfamily A member 2; test: PROTAC activity at SMARCA2/VHL in human NCI-H1568 cells assessed as degradation protein measured after 18 hrs; assay type: cell-based
[26] = target: T8, Protein polybromo-1/von Hippel-Lindau disease tumor suppressor; test: PROTAC activity at PBRM1/VHL in human NCI-H1568 cells assessed as degradation protein measured after 18 hrs; assay type: cell-based
[27] = target: SWI/SNF-related matrix-associated actin-dependent regulator of chromatin subfamily A member 2 (Homo sapiens, UniProt P51531); test: Inhibition of SMARCA2 BD (unknown origin)
[28] = target: SWI/SNF-related matrix-associated actin-dependent regulator of chromatin subfamily A member 4 (Homo sapiens, UniProt P51532); test: Inhibition of SMARCA4 BD (unknown origin)
[29] = Inhibition of […] BD5 (unknown origin); design: species or system Homo sapiens
MV4-11 = test: Antiproliferative activity against human MV4-11 cells measured after 7 days; assay type: functional, cell-based; settings: MV4-11, 168 h
SK-MEL-5 = test: Antiproliferative activity against human SK-MEL-5 cells measured after 7 days; assay type: functional, cell-based; settings: SK-MEL-5, 168 h
[30] = Antiproliferative activity against human NCI-H1568 cells measured after 7 days; assay type: functional, cell-based; settings: NCI-H1568, 168 h
[31] = target: von Hippel-Lindau disease tumor suppressor/Bromodomain-containing protein 2 (Homo sapiens, UniProt P25440+P40337); test: PROTAC activity at BRD2/VHL in human 22Rv1 cells assessed as protein degradation measured after 16 hrs; assay type: cell-based

T2 sequence (P25440 whole entry, the tested form may be a part): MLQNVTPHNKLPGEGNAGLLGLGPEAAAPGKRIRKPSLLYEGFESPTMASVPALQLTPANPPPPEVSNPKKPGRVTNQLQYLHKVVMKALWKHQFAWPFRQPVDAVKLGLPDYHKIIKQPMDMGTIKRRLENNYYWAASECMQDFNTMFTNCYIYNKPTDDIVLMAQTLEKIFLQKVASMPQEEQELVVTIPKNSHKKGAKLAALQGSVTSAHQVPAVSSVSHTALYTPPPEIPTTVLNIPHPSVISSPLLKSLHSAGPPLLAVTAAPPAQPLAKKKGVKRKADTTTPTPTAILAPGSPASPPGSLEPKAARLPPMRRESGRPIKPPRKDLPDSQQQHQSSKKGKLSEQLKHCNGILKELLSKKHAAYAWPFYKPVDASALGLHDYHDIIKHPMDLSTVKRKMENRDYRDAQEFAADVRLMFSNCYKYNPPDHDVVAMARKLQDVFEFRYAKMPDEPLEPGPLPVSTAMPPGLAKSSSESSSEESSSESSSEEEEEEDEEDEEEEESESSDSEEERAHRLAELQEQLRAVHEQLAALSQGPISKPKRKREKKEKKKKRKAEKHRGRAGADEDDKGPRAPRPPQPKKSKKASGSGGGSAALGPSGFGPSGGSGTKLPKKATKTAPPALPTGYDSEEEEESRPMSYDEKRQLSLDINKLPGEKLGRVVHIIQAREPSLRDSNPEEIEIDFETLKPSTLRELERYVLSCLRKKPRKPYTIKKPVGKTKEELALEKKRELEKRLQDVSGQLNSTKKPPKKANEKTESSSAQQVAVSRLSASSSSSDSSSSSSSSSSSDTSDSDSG
T6 sequence (O75530 whole entry): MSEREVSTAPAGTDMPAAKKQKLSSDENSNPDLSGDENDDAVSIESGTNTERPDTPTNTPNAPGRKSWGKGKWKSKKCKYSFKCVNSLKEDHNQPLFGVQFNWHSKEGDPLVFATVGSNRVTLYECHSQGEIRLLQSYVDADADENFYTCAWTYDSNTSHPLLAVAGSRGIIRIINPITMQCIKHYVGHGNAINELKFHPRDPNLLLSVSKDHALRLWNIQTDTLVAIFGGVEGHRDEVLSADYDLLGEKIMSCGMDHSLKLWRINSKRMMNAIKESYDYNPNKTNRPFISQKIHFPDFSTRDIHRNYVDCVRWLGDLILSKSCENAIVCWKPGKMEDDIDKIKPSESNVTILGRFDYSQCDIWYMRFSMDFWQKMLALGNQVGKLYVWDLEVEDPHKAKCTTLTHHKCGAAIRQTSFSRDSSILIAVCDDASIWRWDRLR
T3 sequence (Q15059 whole entry, the tested form may be a part): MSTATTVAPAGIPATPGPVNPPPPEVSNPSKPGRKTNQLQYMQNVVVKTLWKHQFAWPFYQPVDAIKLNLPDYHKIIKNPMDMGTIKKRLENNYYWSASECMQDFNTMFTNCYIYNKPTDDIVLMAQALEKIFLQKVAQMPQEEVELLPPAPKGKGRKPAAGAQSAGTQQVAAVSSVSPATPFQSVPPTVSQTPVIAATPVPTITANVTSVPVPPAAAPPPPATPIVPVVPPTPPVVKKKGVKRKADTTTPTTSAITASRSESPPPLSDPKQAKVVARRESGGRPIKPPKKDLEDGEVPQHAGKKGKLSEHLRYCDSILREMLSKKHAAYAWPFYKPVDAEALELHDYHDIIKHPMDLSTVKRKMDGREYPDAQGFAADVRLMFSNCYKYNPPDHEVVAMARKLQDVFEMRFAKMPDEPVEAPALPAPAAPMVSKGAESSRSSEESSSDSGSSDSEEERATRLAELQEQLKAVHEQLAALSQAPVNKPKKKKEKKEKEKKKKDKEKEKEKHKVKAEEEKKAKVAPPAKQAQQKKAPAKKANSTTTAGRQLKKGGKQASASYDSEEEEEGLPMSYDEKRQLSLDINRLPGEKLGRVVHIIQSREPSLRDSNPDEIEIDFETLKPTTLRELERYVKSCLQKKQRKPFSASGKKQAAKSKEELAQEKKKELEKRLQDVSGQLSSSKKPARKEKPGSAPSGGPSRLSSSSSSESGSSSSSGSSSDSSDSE
T8 sequence (Q86U86 whole entry): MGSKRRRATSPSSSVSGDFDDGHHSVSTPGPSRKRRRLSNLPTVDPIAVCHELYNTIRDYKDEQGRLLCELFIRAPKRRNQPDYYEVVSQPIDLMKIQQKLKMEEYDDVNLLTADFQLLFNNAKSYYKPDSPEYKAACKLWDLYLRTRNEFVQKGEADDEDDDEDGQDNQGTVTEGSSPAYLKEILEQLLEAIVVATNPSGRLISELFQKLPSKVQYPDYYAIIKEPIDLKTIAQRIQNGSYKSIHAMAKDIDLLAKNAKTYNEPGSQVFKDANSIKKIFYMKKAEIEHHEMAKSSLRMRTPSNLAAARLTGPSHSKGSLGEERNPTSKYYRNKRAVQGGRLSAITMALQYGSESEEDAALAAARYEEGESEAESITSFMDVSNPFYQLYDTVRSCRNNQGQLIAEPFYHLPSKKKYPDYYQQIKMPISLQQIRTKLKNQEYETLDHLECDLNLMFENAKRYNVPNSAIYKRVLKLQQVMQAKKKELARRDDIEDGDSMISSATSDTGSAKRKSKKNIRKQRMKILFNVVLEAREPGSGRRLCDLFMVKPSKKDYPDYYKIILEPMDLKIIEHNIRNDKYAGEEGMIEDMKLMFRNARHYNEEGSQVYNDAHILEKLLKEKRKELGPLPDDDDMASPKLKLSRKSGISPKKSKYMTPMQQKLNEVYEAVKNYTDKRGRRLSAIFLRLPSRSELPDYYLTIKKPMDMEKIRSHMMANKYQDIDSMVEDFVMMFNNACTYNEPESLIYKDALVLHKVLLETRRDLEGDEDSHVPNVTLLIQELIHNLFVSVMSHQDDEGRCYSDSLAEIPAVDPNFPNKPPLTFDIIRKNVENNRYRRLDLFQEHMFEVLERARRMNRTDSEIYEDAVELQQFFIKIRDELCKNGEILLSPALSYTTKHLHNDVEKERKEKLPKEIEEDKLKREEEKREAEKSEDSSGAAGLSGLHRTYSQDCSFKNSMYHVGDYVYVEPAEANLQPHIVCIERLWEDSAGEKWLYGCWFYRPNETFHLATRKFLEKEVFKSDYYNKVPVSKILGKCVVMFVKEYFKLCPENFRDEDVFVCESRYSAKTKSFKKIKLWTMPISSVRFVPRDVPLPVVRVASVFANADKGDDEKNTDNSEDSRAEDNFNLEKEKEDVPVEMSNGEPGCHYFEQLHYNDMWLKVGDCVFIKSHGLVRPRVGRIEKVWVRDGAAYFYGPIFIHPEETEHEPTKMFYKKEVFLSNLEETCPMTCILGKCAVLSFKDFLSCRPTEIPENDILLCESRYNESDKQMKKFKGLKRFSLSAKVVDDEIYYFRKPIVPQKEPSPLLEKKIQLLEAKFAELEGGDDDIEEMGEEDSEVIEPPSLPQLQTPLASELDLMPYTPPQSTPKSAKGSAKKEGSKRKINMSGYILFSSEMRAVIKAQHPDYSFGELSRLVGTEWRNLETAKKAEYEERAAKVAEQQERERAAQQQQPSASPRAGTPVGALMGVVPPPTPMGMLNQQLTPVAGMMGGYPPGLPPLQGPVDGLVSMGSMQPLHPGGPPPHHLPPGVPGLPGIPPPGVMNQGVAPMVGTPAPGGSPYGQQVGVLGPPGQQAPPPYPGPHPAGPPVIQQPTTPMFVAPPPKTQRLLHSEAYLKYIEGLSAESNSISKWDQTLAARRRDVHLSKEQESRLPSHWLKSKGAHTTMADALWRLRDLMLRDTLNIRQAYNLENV
T8 sequence (P40337 whole entry): as the sequence (P40337 whole entry, looked up) above

EC50 [1]: 3.8 nM
GI50 (MM1.S): 1210 nM
SMILES: O=C1CCC(N2C(=O)c3cccc(NCCOCCOCCn4cc(CCCCN(Cc5ccc(C(=O)NO)cc5)C(=O)Nc5ccccc5)nn4)c3C2=O)C(=O)N1 (stereo unspecified)

EC50 [2]: 3.2 nM
SMILES: CCCCN(Cc1ccc(C(=O)NO)cc1)C(=O)Nc1ccc(NC(=O)CCCc2cn(CCOCCNc3cccc4c3C(=O)N(C3CCC(=O)NC3=O)C4=O)nn2)cc1 (stereo unspecified)

Kd [3]: 111 nM
Kd [4]: 94 nM
Kd [5]: 35 nM
Kd [6]: 39 nM
Kd [7]: 75 nM
Kd [8]: 44 nM
SMILES: CC(=O)N[C@H](C(=O)N1C[C@H](O)C[C@H]1C(=O)NCc1ccc(-c2scnc2C)cc1)C(C)(C)SCCCCCNC(=O)C[C@@H]1N=C(c2ccc(Cl)cc2)c2c(sc(C)c2C)-n2c(C)nnc21

Activity [9]: 72%
Activity [10]: 72%
SMILES: CCCOc1cccc(Oc2cc3c(cc2NS(=O)(=O)c2cccc(C(=O)NCCOCCOCCOCC(=O)N[C@H](C(=O)N4C[C@H](O)C[C@H]4C(=O)NCc4ccc(-c5scnc5C)cc4)C(C)(C)C)c2)n(C)c(=O)n3C)c1

IC50 [21]: 43 nM
SMILES: CCCOc1cccc(Oc2cc3c(cc2NS(=O)(=O)c2ccc(OC)c(OC)c2)n(C)c(=O)n3C)c1

EC50 [22]: 6 nM
EC50 [23]: 11 nM
EC50 [24]: 32 nM
EC50 [25]: 3.3 nM
EC50 [26]: 15.6 nM
IC50 [27]: 770 nM
IC50 [28]: 560 nM
IC50 [29]: 504 nM
IC50 (MV4-11): 28 nM
IC50 (SK-MEL-5): 77 nM
SMILES: Cc1ncsc1-c1ccc(CNC(=O)[C@H]2C[C@H](O)CN2C(=O)[C@H](NC(=O)C2(F)CC2)C(C)(C)C)c(OCCOc2ccc(CN3CCN(c4cc(-c5ccccc5O)nnc4N)CC3)cc2)c1
IC50 [30]: 68 nM

Kd [3]: 34 nM
Kd [4]: 4.7 nM
EC50 [31]: < 5 nM
SMILES: Cc1ncsc1-c1ccc([C@H](C)NC(=O)[C@@H]2C[C@@H](O)CN2C(=O)C(NC(=O)COCCCOCCNC(=O)C[C@@H]2N=C(c3ccc(Cl)cc3)c3c(sc(C)c3C)-n3c(C)nnc32)C(C)(C)C)cc1 (single isomer, unassigned)

Further lines, the compound ahead of its results:

SMILES: Cc1nc(CCC(=O)NCCCCC(=O)N[C@@H](C(=O)N2C[C@H](O)C[C@H]2C(=O)NCc2ccc(-c3scnc3C)cc2)C(C)(C)C)ccc1-c1cnc(NCc2c(F)ccc3c2CCO3)n2cnnc12
Kd (Polycomb protein EED [11]): 0.537 nM
pIC50 [12]: 8.11
GI50 (KARPAS-422): 57 nM

SMILES: Cc1nc(CCC(=O)NCCOc2ccc(OCC(=O)N[C@@H](C(=O)N3C[C@H](O)C[C@H]3C(=O)NCc3ccc(-c4scnc4C)cc3)C(C)(C)C)cc2)ccc1-c1cnc(NCc2c(F)ccc3c2CCO3)n2cnnc12
Kd (Polycomb protein EED [11]): 0.955 nM
pIC50 [12]: 8.17
GI50 (KARPAS-422): 45 nM

SMILES: Cc1cc(C)c(CNC(=O)c2cc(-c3ccc(N4CCN(C(C)C)CC4)nc3)cc3c2cnn3C(C)C)c(=O)[nH]1
IC50 [13]: > 2500 nM

SMILES: Cc1ncsc1-c1ccc(CNC(=O)[C@@H]2C[C@@H](O)CN2C(=O)[C@@H](NC(=O)CCCNC(=O)c2ccc(-c3cnc(NCc4ccco4)n4cnnc34)cc2)C(C)(C)C)cc1
EC50 [14]: 610 nM
EC50 [15]: 300 nM
EC50 [16]: 590 nM
IC50 (Polycomb protein EED [17]): 247 nM

SMILES: Cc1cc(C)c(CNC(=O)c2cc(-c3ccc(N4CCN(CCNC(=O)CC56CC7CC(CC(C7)C5)C6)CC4)nc3)cc3c2cnn3C(C)C)c(=O)[nH]1
IC50 [18]: 120 nM

SMILES: COc1ccc(/C=N/NC(=O)CCCCCCCC(=O)NO)cc1
IC50 (Histone deacetylase 1): 2.28 nM
IC50 (Histone deacetylase 2): 3.12 nM
IC50 (Histone deacetylase 3): 1.82 nM
IC50 [19]: 35.8 nM
IC50 (Histone deacetylase 8): 60.3 nM
IC50 [20]: 11.1 nM

SMILES: CNC(=O)CCc1ccc(-c2cnc(NCc3c(F)ccc4c3CCO4)n3cnnc23)c(C)n1
Kd (Polycomb protein EED [11]): 0.245 nM
pIC50 [12]: 8.43
